The target of one data set is human D2 receptor (Homo sapiens (Human), UniProt P14416). The data set is described as follows: Radioligand binding ([3H]-spiperone) to cloned receptors expressed in HEK-293 EBNA cells. As to conditions: HEK293 EBNA cell membranes expressing human D2. In outline:
(§1)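 Membranes from transiently transfected HEK293 EBNA cells incubated 1 h at RT with ten compound concentrations (10 μM–0.1 nM). D2/D3: [3H]-spiperone ~0.7/0.5 nM, Tris–NaCl–Mg/Ca buffer pH 7.4; 5-HT2A: [3H]-ketanserin 1.1 nM, Tris–MgCl2–EGTA pH 7.4.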

The next data set concerns the target human D3 receptor (Homo sapiens (Human), UniProt P35462). The data set is described as above. Particulars: HEK293 EBNA cell membranes expressing human D3. The essentials: as §1
Another data set addresses human 5-HT2A receptor (Homo sapiens (Human), UniProt P28223). The data set is described as follows: Radioligand binding ([3H]-ketanserin) to cloned receptors expressed in HEK-293 EBNA cells. As to conditions: HEK293 EBNA cell membranes expressing human 5-HT2A. The essentials: as §1

What is called Ki is a dissociation constant, usually derived from enzyme kinetics or from competition with a known ligand. The melting point is the temperature of the solid-liquid transition.

Chain of human D2 receptor (P14416 whole entry): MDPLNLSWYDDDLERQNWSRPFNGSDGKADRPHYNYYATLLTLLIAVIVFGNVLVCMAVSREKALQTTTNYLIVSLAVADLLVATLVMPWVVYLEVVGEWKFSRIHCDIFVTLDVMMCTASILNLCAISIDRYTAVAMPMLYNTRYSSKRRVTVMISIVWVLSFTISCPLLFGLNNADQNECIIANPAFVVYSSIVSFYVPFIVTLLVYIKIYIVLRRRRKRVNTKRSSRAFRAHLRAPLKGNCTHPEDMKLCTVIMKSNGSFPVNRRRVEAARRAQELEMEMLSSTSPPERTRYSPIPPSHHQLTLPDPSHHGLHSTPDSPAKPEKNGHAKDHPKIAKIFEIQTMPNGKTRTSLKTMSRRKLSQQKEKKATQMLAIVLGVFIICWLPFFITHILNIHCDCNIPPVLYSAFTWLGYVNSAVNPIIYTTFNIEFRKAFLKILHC
Chain of human 5-HT2A receptor (P28223 whole entry): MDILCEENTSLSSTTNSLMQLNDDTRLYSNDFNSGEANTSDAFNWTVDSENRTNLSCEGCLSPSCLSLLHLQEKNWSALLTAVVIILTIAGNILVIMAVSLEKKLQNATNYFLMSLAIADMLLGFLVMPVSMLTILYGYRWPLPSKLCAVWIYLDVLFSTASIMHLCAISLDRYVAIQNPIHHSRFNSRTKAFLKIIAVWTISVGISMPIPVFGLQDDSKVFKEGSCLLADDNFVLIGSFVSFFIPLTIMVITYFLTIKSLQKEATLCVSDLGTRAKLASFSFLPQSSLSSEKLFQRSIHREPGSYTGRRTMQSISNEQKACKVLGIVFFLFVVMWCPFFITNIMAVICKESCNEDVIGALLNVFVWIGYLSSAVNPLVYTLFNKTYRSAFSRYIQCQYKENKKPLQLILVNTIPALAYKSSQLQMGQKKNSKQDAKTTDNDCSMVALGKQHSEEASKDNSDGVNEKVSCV
Chain of human D3 receptor (P35462 whole entry): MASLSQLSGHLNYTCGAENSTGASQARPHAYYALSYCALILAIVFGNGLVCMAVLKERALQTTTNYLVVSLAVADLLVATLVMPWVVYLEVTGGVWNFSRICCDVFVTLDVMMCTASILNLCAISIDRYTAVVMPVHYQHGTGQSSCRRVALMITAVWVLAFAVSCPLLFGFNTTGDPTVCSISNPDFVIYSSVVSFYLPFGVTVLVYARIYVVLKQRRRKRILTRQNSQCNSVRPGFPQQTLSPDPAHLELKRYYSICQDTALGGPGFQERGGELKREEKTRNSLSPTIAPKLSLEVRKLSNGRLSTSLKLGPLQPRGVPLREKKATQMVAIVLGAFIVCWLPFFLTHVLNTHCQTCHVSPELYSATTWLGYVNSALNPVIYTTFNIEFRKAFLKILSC

On to `CN(C)C(=O)CCC(=O)N[C@H]1CC[C@H](CCN2CCC(c3cccc4c3CCO4)CC2)CC1` [Example 63, trans-N-(4-{2-[4-(2,3-Dihydro-benzofuran-4-yl)-piperidin-1-yl]ethyl}-cyclohexyl)-N′,N′-dimethyl-succinamide], for which the melting point was found to be 205 °C. For the same compound, the inhibition constant (Ki) at human D2 receptor is 1060 nM. In addition, the inhibition constant (Ki) on human D3 receptor is 15.5 nM. Besides, the Ki on human 5-HT2A receptor came out at 89.6 nM.
`CC(=O)N[C@H]1CC[C@H](CCN2CCC(c3ccc(F)c4occc34)CC2)CC1` [Example 64, trans-N-(4-{2-[4-(7-Fluoro-benzofuran-4-yl)-piperidin-1-yl]-ethyl}-cyclohexyl)-acetamide] yielded a melting point of 203.5 °C. The inhibition constant Ki at human D2 receptor came out at 404 nM. Further, the Ki at human D3 receptor is 9.72 nM. Also, the Ki at human 5-HT2A receptor is 33.3 nM.
Taken in the same sequence, the figures for `O=C(N[C@H]1CC[C@H](CCN2CCC(c3ccc(F)c4occc34)CC2)CC1)C1CCOCC1` [Example 65, Tetrahydro-pyran-4-carboxylic acid trans-(4-{2-[4-(7-fluoro-benzofuran-4-yl)-piperidin-1-yl]-ethyl}-cyclohexyl)-amide] were 208 °C, 361 nM, 34 nM and 11.6 nM.
For `O=C(CC1CCOCC1)N[C@H]1CC[C@H](CCN2CCC(c3ccc(F)c4occc34)CC2)CC1` [Example 66, trans-N-(4-{2-[4-(7-Fluoro-benzofuran-4-yl)-piperidin-1-yl]-ethyl}-cyclohexyl)-2-(tetrahydro-pyran-4-yl)-acetamide], the melting point was determined as 187.5 °C. The Ki at human D2 receptor is 616 nM. Further, at human D3 receptor, the inhibition constant (Ki) is 20.1 nM. The inhibition constant (Ki) on human 5-HT2A receptor came to 30.9 nM.
The compound `COCCC(=O)N[C@H]1CC[C@H](CCN2CCC(c3ccc(F)c4occc34)CC2)CC1` [Example 67, trans-N-(4-{2-[4-(7-Fluoro-benzofuran-4-yl)-piperidin-1-yl]-ethyl}-cyclohexyl)-3-methoxy-propionamide] came in with a melting point of 177 °C. Further, on human D2 receptor, the inhibition constant Ki turned out to be 613 nM. The Ki on human D3 receptor came to 9.28 nM. Besides, the inhibition constant (Ki) at human 5-HT2A receptor came to 31 nM.
Taken in the same sequence, the figures for `O=C(N[C@H]1CC[C@H](CCN2CCC(c3cccc4c3CCO4)CC2)CC1)c1ccc(-n2cccn2)cc1` [Example 68, trans-N-(4-{2-[4-(2,3-Dihydro-benzofuran-4-yl)-piperidin-1-yl]-ethyl}-cyclohexyl)-4-pyrazol-1-yl-benzamide] were 258.5 °C, 1700 nM, 8.65 nM and 27.4 nM.
`Cc1nc(-c2ccc(C(=O)N[C@H]3CC[C@H](CCN4CCC(c5cccc6c5CCO6)CC4)CC3)cc2)no1` [Example 69, trans-N-(4-{2-[4-(2,3-Dihydro-benzofuran-4-yl)-piperidin-1-yl]-ethyl}-cyclohexyl)-4-(5-methyl-[1,2,4]oxadiazol-3-yl)-benzamide] had a melting point of 256.5 °C. Moreover, at human D2 receptor, the inhibition constant Ki was 3730 nM. Further, on human D3 receptor, the inhibition constant Ki was 14.9 nM. Moreover, the Ki on human 5-HT2A receptor worked out at 54.5 nM.
Taken in the same sequence, the figures for `CS(=O)(=O)c1ccc(C(=O)N[C@H]2CC[C@H](CCN3CCC(c4cccc5c4CCO5)CC3)CC2)s1` [Example 70, 5-Methanesulfonyl-thiophene-2-carboxylic acid trans-(4-{2-[4-(2,3-dihydro-benzofuran-4-yl)-piperidin-1-yl]-ethyl}-cyclohexyl)-amide] were 255 °C, 195 nM, 6.63 nM and 31.4 nM.
`CC(C)(C)c1ccc(C(=O)N[C@H]2CC[C@H](CCN3CCC(c4cccc5c4CCO5)CC3)CC2)cc1` [Example 71, trans-4-tert-Butyl-N-(4-{2-[4-(2,3-dihydro-benzofuran-4-yl)-piperidin-1-yl]-ethyl}-cyclohexyl)-benzamide] came in with a melting point of 208 °C. The “D2 Ki” value on human D2 receptor is “inactive”. Moreover, the inhibitory constant (Ki) on human D3 receptor came to 13.6 nM. Further, on human 5-HT2A receptor, the inhibition constant Ki amounted to 28.6 nM.
As to `CC(C)(O)CC(=O)N[C@H]1CC[C@H](CCN2CCC(c3cccc4c3CCO4)CC2)CC1` [Example 72, trans-N-(4-{2-[4-(2,3-Dihydro-benzofuran-4-yl)-piperidin-1-yl]-ethyl}-cyclohexyl)-3-hydroxy-3-methyl-butyramide], the melting point was determined as 168 °C. For the same compound, the Ki on human D2 receptor was 176 nM. The Ki on human D3 receptor was found to be 6.33 nM. In addition, on human 5-HT2A receptor, the Ki was 56.1 nM.
`CCCC(=O)N[C@H]1CC[C@H](CCN2CCC(c3cccc4c3CCO4)CC2)CC1` [Example 73, trans-N-(4-{2-[4-(2,3-Dihydro-benzofuran-4-yl)-piperidin-1-yl]-ethyl}-cyclohexyl)-butyramide] came in with a melting point of 196 °C. Besides, the Ki at human D2 receptor is 197 nM. The inhibition constant (Ki) at human D3 receptor was 5.16 nM. For the same compound, the Ki at human 5-HT2A receptor stood at 93.4 nM.
Take `O=C(CCC(F)(F)F)N[C@H]1CC[C@H](CCN2CCC(c3cccc4c3CCO4)CC2)CC1` [Example 74, trans-N-(4-{2-[4-(2,3-Dihydro-benzofuran-4-yl)-piperidin-1-yl]ethyl}-cyclohexyl)-4,4,4-trifluoro-butyramide]: the melting point was determined as 200 °C. Moreover, the inhibition constant Ki on human D2 receptor turned out to be 253 nM. Besides, on human D3 receptor, the Ki amounted to 7.64 nM. Further, the inhibition constant (Ki) on human 5-HT2A receptor worked out at 119 nM.
On the same counts, the results for `CC(C)CCC(=O)N[C@H]1CC[C@H](CCN2CCC(c3cccc4c3CCO4)CC2)CC1` [Example 75, 4-Methyl-pentanoic acid trans-(4-{2-[4-(2,3-dihydro-benzofuran-4-yl)-piperidin-1-yl]-ethyl}-cyclohexyl)-amide] are 188 °C, 1070 nM, 9.97 nM and 72.9 nM.
On the same counts, the results for `CCCCC(=O)N[C@H]1CC[C@H](CCN2CCC(c3cccc4c3CCO4)CC2)CC1` [Example 76, Pentanoic acid trans-(4-{2-[4-(2,3-dihydro-benzofuran-4-yl)-piperidin-1-yl]-ethyl}-cyclohexyl)-amide] are 186 °C, 411 nM, 4.57 nM and 103 nM.
The compound `O=C(N[C@H]1CC[C@H](CCN2CCC(c3cccc4c3CCO4)CC2)CC1)c1ccc(N2CCS(=O)(=O)CC2)cc1` [Example 77, trans-N-(4-{2-[4-(2,3-Dihydro-benzofuran-4-yl)-piperidin-1-yl]-ethyl}-cyclohexyl)-4-(1,1-dioxo-1λ6-thiomorpholin-4-yl)-benzamide] came in with a melting point of 282 °C. At human D2 receptor, the inhibitory constant (Ki) worked out at 329 nM. The Ki on human D3 receptor turned out to be 5.62 nM. Further, the inhibitory constant (Ki) at human 5-HT2A receptor amounted to 33 nM.
On the same counts, the results for `O=C(N[C@H]1CC[C@H](CCN2CCC(c3cccc4c3CCO4)CC2)CC1)c1ccc2ncccc2c1` [Example 78, Quinoline-6-carboxylic acid trans-(4-{2-[4-(2,3-dihydro-benzofuran-4-yl)-piperidin-1-yl]-ethyl}-cyclohexyl)-amide] are 238 °C, 3250 nM, 4.35 nM and 30.7 nM.
Consider `O=C(N[C@H]1CC[C@H](CCN2CCC(c3cccc4c3CCO4)CC2)CC1)c1ccc2c(c1)OCO2` [Example 79, Benzo[1,3]dioxole-5-carboxylic acid trans-(4-{2-[4-(2,3-dihydro-benzofuran-4-yl)-piperidin-1-yl]-ethyl}-cyclohexyl)-amide], for which the melting point amounted to 233 °C. Further, at human D2 receptor, the Ki was found to be 809 nM. Moreover, the Ki at human D3 receptor came out at 3.5 nM. In addition, the Ki on human 5-HT2A receptor was found to be 23 nM.
Take `O=C(CC1COC1)N[C@H]1CC[C@H](CCN2CCC(c3cccc4c3CCO4)CC2)CC1` [Example 80, trans-N-(4-{2-[4-(2,3-Dihydro-benzofuran-4-yl)-piperidin-1-yl]-ethyl}-cyclohexyl)-2-oxetan-3-yl-acetamide]: the melting point stood at 197 °C. For the same compound, the Ki at human D2 receptor is 196 nM. Moreover, at human D3 receptor, the inhibitory constant (Ki) came out at 4.27 nM. Also, the Ki on human 5-HT2A receptor is 55.5 nM.
`CC[C@@H](O)CC(=O)N[C@H]1CC[C@H](CCN2CCC(c3cccc4c3CCO4)CC2)CC1` [Example 81, (R)-3-Hydroxy-pentanoic acid trans-(4-{2-[4-(2,3-dihydro-benzofuran-4-yl)-piperidin-1-yl]-ethyl}-cyclohexyl)-amide] showed a melting point of 201 °C. Further, at human D2 receptor, the Ki was found to be 356 nM. Further, the Ki at human D3 receptor was 10 nM. Further, the Ki on human 5-HT2A receptor is 123 nM.
`COC(CC(=O)N[C@H]1CC[C@H](CCN2CCC(c3cccc4c3CCO4)CC2)CC1)OC` [Example 82, trans-N-(4-{2-[4-(2,3-Dihydro-benzofuran-4-yl)-piperidin-1-yl]ethyl}-cyclohexyl)-3,3-dimethoxy-propionamide] had a melting point of 240 °C. The inhibition constant (Ki) on human D2 receptor worked out at 366 nM. Further, at human D3 receptor, the Ki stood at 4.78 nM. Also, at human 5-HT2A receptor, the inhibition constant Ki was determined as 69.9 nM.
Taken in the same sequence, the figures for `CN(C)C(=O)N[C@H]1CC[C@H](CCN2CCC(c3cccc4c3CCO4)CC2)CC1` [Example 83, trans-3-(4-{2-[4-(2,3-Dihydro-benzofuran-4-yl)-piperidin-1-yl]-ethyl}-cyclohexyl)-1,1-dimethyl-urea] were 260 °C, 69.9 nM, 44.2 nM and 121 nM.
`CC(C)=CC(=O)N[C@H]1CC[C@H](CCN2CCC(c3cccc4c3CCO4)CC2)CC1` [Example 84, 3-Methyl-but-2-enoic acid trans-(4-{2-[4-(2,3-dihydro-benzofuran-4-yl)-piperidin-1-yl]-ethyl}-cyclohexyl)-amide] showed a melting point of 177 °C. On human D2 receptor, the Ki stood at 73.9 nM. Besides, at human D3 receptor, the inhibition constant Ki is 6.36 nM. In addition, on human 5-HT2A receptor, the Ki is 59.8 nM.
